According to patent US7348160B2, “Phosphoamidase assay” (Merck Patent GmbH, priority 2002, dated 2008):
Like-named read-outs stand apart in the source and are kept apart here.

How the values were obtained:
PHP1 [1] = target: T1, PHP1 (Homo sapiens, UniProt Q9NRX4); test: Screening assay for inhibitors or activators of PHP1 with DiFMUP substrate; format: biochemical
T1 sequence (Q9NRX4 1-125): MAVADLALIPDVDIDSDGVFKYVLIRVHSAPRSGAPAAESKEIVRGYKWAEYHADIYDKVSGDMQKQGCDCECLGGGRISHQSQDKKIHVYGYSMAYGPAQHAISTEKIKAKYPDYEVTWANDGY
Description: In order to test whether the phosphoamidase and protein phosphoamidase substrates of the present invention are suitable for the for identification of inhibitors or activators of these proteins, the activity of PHP1 was determined with the substrate DiFMUP in presence of bisperoxo-(bipyridine)-oxovanadate [(bp)V(bipy)], a well characterized inhibitor of protein phosphotyrosine phosphatase(FIG. 9). The inhibitor concentration varied from 0.01 to 30 μM, the enzyme concentration was kept at 0.1 μM and substrate concentration at 50 μM. After incubation for 15 min at room temperature the fluorescence was detected at 450 nm on excitation at 360 nm.
The reaction mixtures for inhibitor screening were prepared by serial 2 fold dilution of the inhibitor bpV(bipy) (Alexis Biochemicals San Diego) starting at 60 μM into 50 μl of the assay buffer consisting of 25 mM Hepes pH=7, 20 mM NaCl, 1 mM MgCl2, 0.01 mg/ml BSA. In a next step 50 μl of a solution of 0.3 μM PHP1 in assay buffer was added to each well and incubated for 5 min at room temperature. In order to initiate the reaction a pre dilution of 50 μM DiFMUP-substrate in assay-buffer was rapidly added to all wells. The reaction was monitored by recording the increase in relative fluorescence at the respective fluorescence emission maxima (Fluoromax Gemini XL microplate reader). The relative activity was calculated using the RFU derived from a control reaction without inhibitor.

PHP1 [2] = target: T1, PHP1; test: pH-dependence of conversion of fluorogenic and chromogenic substrates by PHP1; format: biochemical; conditions: for acceptance as substrate by PHP1: pH 5-9, 0.1 μM PHP1; for turnover rate by PHP1 in more alkaline media: pH above the maximum, up to pH 9
From the text: Because it is well known that the use of phospho fluorophores like DIFMUP, MUP, DDAO or FDP as phosphatase substrates have certain limitations due to the compatibility of the substrate pKa-values with the pH-optima of the respective phosphatase, the pH-dependence of the PHP1 reactivity towards the aforementioned fluorogenic substrates is to be determined. As shown in FIG. 1 the pH is varied from pH=5-9 in steps of 0.5 pH-units. In order to avoid undesired fluorescence flattening effects due to high absorption by the accumulating reaction product the initial reaction velocity is used as relative measure for the pH-dependence of PHP1-reactivity towards the selected substrate.
To start the reaction PHP1 was added from a pre dilution in the respective reaction buffer to yield a final concentration of 0.1 μM. The reaction was monitored by recording the increase in relative fluorescence at the respective fluorescence emission maxima (Fluoromax Gemini XL microplate reader).

PHP1 [3] = target: T1, PHP1; test: Kinetic analysis of the conversion of FDP and DiFMUP by PHP1; format: biochemical; conditions: pH 7.0, 0.1 μM PHP1
Description: The KM-values for DiFMUP and FDP can be approximated by recording the initial reaction velocity in dependence of the substrate concentration, as observed by the increase in relative fluorescence at the respective fluorescence emission maxima upon addition of PHP1. […] This effect limits the range of substrate variation. For FDP concentrations >20 μM the signal quenching disturbs reaction rate measurements detrimentally. […] Measurements for DiFMUP are limited to concentrations below 500 μM.
To start the reaction PHP1 was added from a stock solution to a final concentration of 0.1 in μM. The reaction was monitored by recording the increase in relative fluorescence at the respective fluorescence emission maxima in an SLM fluorescence spectrometer. To allow for quantification the fluorescence signal was normalised using a standard curve recorded for a serial dilution of fully dephosphorylated DiFMUP and FDP respectively. All recordings were carried out at the same PM-voltage and integration time with correction for the relative signal gain.

[4] = target: T2, T-cell tyrosine phosphatase (Homo sapiens, UniProt P17706); conditions: from literature (Kerby et al. 2001); cited from earlier work
T2 sequence (P17706 1-415): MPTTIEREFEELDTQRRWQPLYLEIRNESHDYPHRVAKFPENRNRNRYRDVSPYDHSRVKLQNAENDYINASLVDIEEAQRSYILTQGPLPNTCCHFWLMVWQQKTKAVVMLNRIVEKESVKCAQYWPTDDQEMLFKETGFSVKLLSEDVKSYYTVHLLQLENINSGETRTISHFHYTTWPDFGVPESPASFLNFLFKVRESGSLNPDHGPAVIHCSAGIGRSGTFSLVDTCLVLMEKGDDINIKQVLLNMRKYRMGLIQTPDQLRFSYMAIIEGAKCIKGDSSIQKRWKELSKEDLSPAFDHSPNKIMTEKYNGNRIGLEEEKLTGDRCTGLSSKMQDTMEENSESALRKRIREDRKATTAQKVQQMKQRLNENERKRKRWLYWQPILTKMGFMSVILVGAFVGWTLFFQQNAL

[5] = 0.1 μM PHP1, 50 μM DiFMUP, inhibitor 0.01 to 30 μM

Row | Compound | acceptance as substrate by PHP1 (PHP1 [2]) | turnover rate by PHP1 in more alkaline media (PHP1 [2]) | also measured
1 | bisperoxo-(bipyridine)-oxovanadate [(bp)V(bipy)] |  |  | concentration showing inhibitory effect on PHP1 (PHP1 [1]; [5]): above 10 μM; inhibition of PHP1 activity (PHP1 [1]; [5]): reproducible and clearly dose-dependent inhibition; activation of PHP1 activity (PHP1 [1]; equimolar concentrations (0.1 μM PHP1), 50 μM DiFMUP): by a factor of two
2 | fluorescein diphosphate [FDP] | accepts | second distinct maximum | Km (PHP1 [3]; non-linear curve fit, high uncertainty, read-out: Michaelis constant KM for PHP1): ~20 µM
3 | Cc1cc(=O)oc2c(F)c(OP(=O)(O)O)c(F)cc12 [DiFMUP, 6,8-difluoro-4-methylum-belliferyl phosphate] | accepts | decrease in turnover rate | Km [4]: 20 µM; Km (PHP1 [3]; estimated from Lineweaver-Burk plot, read-out: KM-value for PHP1): > 1000 µM
4 | O=[N+]([O-])c1ccc(OP(=O)(O)O)cc1 [pNPP, para-nitrophenol phosphate] | not recognised and processed by PHP1 at any pH |  | 
5 | CC1(C)C2=C(Cl)C(=O)C(Cl)=CC2=Nc2ccc(OP(=O)(O)O)cc21 [DDAO, 9H-(1,3-dichloro-9,9-dimethyl-acridin-2-one-7-yl)phosphate] | accepts | stays relatively constant | 
